# Source: PubChem BioAssay (NCI)
#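 1) Cells in 96-well plates. 2) Compound, 48 h, 5 concentrations. 3) Linear interpolation between surrounding doses. 4) Unreached endpoint = highest concentration. TGI: total growth inhibition.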
# Tests used:
# Assay in all cases: NCI anticancer screen, dose series, 48 h
# A498 renal = system: A498 renal
# NCI-H460 lung = system: NCI-H460 lung
# RPMI-8226 leukemia = system: RPMI-8226 leukemia
# MDA-N = system: MDA-N
# U251 CNS = system: U251 CNS
# OVCAR-4 ovarian = system: OVCAR-4 ovarian
# NCI-H23 lung = system: NCI-H23 lung
# HCT-116 colon = system: HCT-116 colon
# HS 578T breast = system: HS 578T breast
# OVCAR-8 ovarian = system: OVCAR-8 ovarian
# UO-31 renal = system: UO-31 renal
# MALME-3M melanoma = system: MALME-3M melanoma
# SK-MEL-2 melanoma = system: SK-MEL-2 melanoma
# SF-268 CNS = system: SF-268 CNS
# T-47D breast = system: T-47D breast
# UACC-62 melanoma = system: UACC-62 melanoma
# MCF7 breast = system: MCF7 breast
# SF-295 CNS = system: SF-295 CNS
# PC-3 prostate = system: PC-3 prostate
# KM12 colon = system: KM12 colon
# A549 NSCLC = system: A549 NSCLC
# HOP-92 NSCLC = system: HOP-92 NSCLC
# HCC-2998 colon = system: HCC-2998 colon
# NCI/ADR-RES ovarian = system: NCI/ADR-RES ovarian
# ACHN renal = system: ACHN renal
# MOLT-4 leukemia = system: MOLT-4 leukemia
# HT29 colon = system: HT29 colon
# OVCAR-3 ovarian = system: OVCAR-3 ovarian
# COLO 205 colon = system: COLO 205 colon
# 786-0 renal = system: 786-0 renal
# RXF 393 renal = system: RXF 393 renal
# NCI-H226 lung = system: NCI-H226 lung
# MDA-MB-435 = system: MDA-MB-435
# OVCAR-5 ovarian = system: OVCAR-5 ovarian
# SF-539 CNS = system: SF-539 CNS
# NCI-H522 lung = system: NCI-H522 lung
# SK-MEL-28 melanoma = system: SK-MEL-28 melanoma
# SW-620 colon = system: SW-620 colon
# CCRF-CEM leukemia = system: CCRF-CEM leukemia
# SN12C renal = system: SN12C renal
# SK-OV-3 ovarian = system: SK-OV-3 ovarian
# HOP-62 NSCLC = system: HOP-62 NSCLC
# K-562 leukemia = system: K-562 leukemia
# MDA-MB-231 breast = system: MDA-MB-231 breast
# EKVX NSCLC = system: EKVX NSCLC
# SNB-75 CNS = system: SNB-75 CNS
# SNB-19 CNS = system: SNB-19 CNS
# HL-60(TB) leukemia = system: HL-60(TB) leukemia
# TK-10 renal = system: TK-10 renal
# BT-549 breast = system: BT-549 breast
# M14 melanoma = system: M14 melanoma
# UACC-257 melanoma = system: UACC-257 melanoma
# DU-145 prostate = system: DU-145 prostate
# SR leukemia = system: SR leukemia
# CAKI-1 renal = system: CAKI-1 renal
# IGROV1 ovarian = system: IGROV1 ovarian
# HCT-15 colon = system: HCT-15 colon
# LOX IMVI melanoma = system: LOX IMVI melanoma
# SK-MEL-5 melanoma = system: SK-MEL-5 melanoma
smiles,measurement,setting,value
COc1cccc(NC(=O)CC(=O)N2N=C(C)C(N=Nc3ccc(S(=O)(=O)c4ccc(N=NC5C(=O)N(C(=O)CC(=O)Nc6cccc(OC)c6)N=C5C)cc4)cc3)C2=O)c1 (stereo unspecified),TGI,A498 renal,> 100 µM
same,TGI,NCI-H460 lung,> 100 µM
same,TGI,RPMI-8226 leukemia,> 100 µM
same,TGI,MDA-N,> 100 µM
same,TGI,U251 CNS,> 100 µM
same,TGI,OVCAR-4 ovarian,> 100 µM
same,TGI,NCI-H23 lung,> 100 µM
same,TGI,HCT-116 colon,> 100 µM
same,TGI,HS 578T breast,> 100 µM
same,TGI,OVCAR-8 ovarian,> 100 µM
same,TGI,UO-31 renal,> 100 µM
same,TGI,MALME-3M melanoma,> 100 µM
same,TGI,SK-MEL-2 melanoma,> 100 µM
same,TGI,SF-268 CNS,> 100 µM
same,TGI,T-47D breast,> 100 µM
same,TGI,UACC-62 melanoma,> 100 µM
same,TGI,MCF7 breast,> 100 µM
same,TGI,SF-295 CNS,> 100 µM
same,TGI,PC-3 prostate,> 100 µM
same,TGI,KM12 colon,> 100 µM
same,TGI,A549 NSCLC,> 100 µM
same,TGI,HOP-92 NSCLC,> 100 µM
same,TGI,HCC-2998 colon,> 100 µM
same,TGI,NCI/ADR-RES ovarian,> 100 µM
same,TGI,ACHN renal,> 100 µM
same,TGI,MOLT-4 leukemia,> 100 µM
same,TGI,HT29 colon,> 100 µM
same,TGI,OVCAR-3 ovarian,> 100 µM
same,TGI,COLO 205 colon,> 100 µM
same,TGI,786-0 renal,> 100 µM
same,TGI,RXF 393 renal,> 100 µM
same,TGI,NCI-H226 lung,> 100 µM
same,TGI,MDA-MB-435,> 100 µM
same,TGI,OVCAR-5 ovarian,> 100 µM
same,TGI,SF-539 CNS,> 100 µM
same,TGI,NCI-H522 lung,> 100 µM
same,TGI,SK-MEL-28 melanoma,> 100 µM
same,TGI,SW-620 colon,> 100 µM
same,TGI,CCRF-CEM leukemia,> 100 µM
same,TGI,SN12C renal,> 100 µM
same,TGI,SK-OV-3 ovarian,> 100 µM
same,TGI,HOP-62 NSCLC,> 100 µM
same,TGI,K-562 leukemia,> 100 µM
same,TGI,MDA-MB-231 breast,> 100 µM
same,TGI,EKVX NSCLC,> 100 µM
same,TGI,SNB-75 CNS,> 100 µM
same,TGI,SNB-19 CNS,> 100 µM
same,TGI,HL-60(TB) leukemia,> 100 µM
same,TGI,TK-10 renal,> 100 µM
same,TGI,BT-549 breast,> 100 µM
same,TGI,M14 melanoma,> 100 µM
same,TGI,UACC-257 melanoma,> 100 µM
same,TGI,DU-145 prostate,> 100 µM
same,TGI,SR leukemia,> 100 µM
same,TGI,CAKI-1 renal,> 100 µM
same,TGI,IGROV1 ovarian,> 100 µM
same,TGI,HCT-15 colon,> 100 µM
same,TGI,LOX IMVI melanoma,> 100 µM
same,TGI,SK-MEL-5 melanoma,> 100 µM
S=c1[nH]c(=S)c2cc(Sc3ccc4[nH]c(=S)[nH]c(=S)c4c3)ccc2[nH]1,TGI,A498 renal,44 µM
same,TGI,NCI-H460 lung,> 100 µM
same,TGI,RPMI-8226 leukemia,54.9 µM
same,TGI,MDA-N,> 100 µM
same,TGI,U251 CNS,> 100 µM
same,TGI,OVCAR-4 ovarian,49.7 µM
same,TGI,NCI-H23 lung,51.4 µM
same,TGI,HCT-116 colon,> 100 µM
same,TGI,HS 578T breast,56.1 µM
same,TGI,OVCAR-8 ovarian,48.1 µM
same,TGI,UO-31 renal,82.4 µM
same,TGI,MALME-3M melanoma,> 100 µM
same,TGI,SK-MEL-2 melanoma,> 100 µM
same,TGI,SF-268 CNS,68 µM
same,TGI,T-47D breast,> 100 µM
same,TGI,UACC-62 melanoma,36.3 µM
same,TGI,MCF7 breast,> 100 µM
same,TGI,SF-295 CNS,47.1 µM
same,TGI,PC-3 prostate,> 100 µM
same,TGI,KM12 colon,62.5 µM
same,TGI,A549 NSCLC,> 100 µM
same,TGI,HOP-92 NSCLC,57.4 µM
same,TGI,HCC-2998 colon,> 100 µM
same,TGI,NCI/ADR-RES ovarian,> 100 µM
same,TGI,ACHN renal,> 100 µM
same,TGI,MOLT-4 leukemia,> 100 µM
same,TGI,HT29 colon,> 100 µM
same,TGI,OVCAR-3 ovarian,> 100 µM
same,TGI,COLO 205 colon,52.4 µM
same,TGI,786-0 renal,40 µM
same,TGI,RXF 393 renal,53.3 µM
same,TGI,NCI-H226 lung,52.5 µM
same,TGI,MDA-MB-435,> 100 µM
same,TGI,OVCAR-5 ovarian,> 100 µM
same,TGI,SF-539 CNS,82.8 µM
same,TGI,NCI-H522 lung,> 100 µM
same,TGI,SK-MEL-28 melanoma,> 100 µM
same,TGI,SW-620 colon,> 100 µM
same,TGI,CCRF-CEM leukemia,80.9 µM
same,TGI,SN12C renal,> 100 µM
same,TGI,SK-OV-3 ovarian,60 µM
same,TGI,K-562 leukemia,> 100 µM
same,TGI,MDA-MB-231 breast,> 100 µM
same,TGI,EKVX NSCLC,> 100 µM
same,TGI,SNB-75 CNS,42.6 µM
same,TGI,SNB-19 CNS,78.2 µM
same,TGI,HL-60(TB) leukemia,62.8 µM
same,TGI,TK-10 renal,67.7 µM
same,TGI,BT-549 breast,73.2 µM
same,TGI,M14 melanoma,> 100 µM
same,TGI,UACC-257 melanoma,> 100 µM
same,TGI,DU-145 prostate,> 100 µM
same,TGI,SR leukemia,51.2 µM
same,TGI,CAKI-1 renal,83.7 µM
same,TGI,IGROV1 ovarian,86.8 µM
same,TGI,HCT-15 colon,> 100 µM
same,TGI,SK-MEL-5 melanoma,> 100 µM
